Measured values: patent US8741889B2, “Method of treating non-small cell lung cancer and colon cancer with gamma-secretase inhibitor” (Hoffmann-La Roche Inc, priority 2008, dated 2014)

Tests used:
[1] = tested on: A549 non-small cell lung carcinoma (NSCLC) xenografts; experiment: Antitumor efficacy in A549 NSCLC xenografts in nude mice; assay type: in vivo; settings: for % TGI: day 47
Protocol: In the current study, compound (1) was evaluated for its antitumor activity against the A549 NSCLC human xenograft model in nude mice. A549 cells appear to have a functional Notch signaling pathway since receptors, ligands, and downstream effectors such as Hes-1 and Hey-1 are expressed (as assessed by PCR-based gene expression profiling). A549 cells have at least one identifiable defect in the Notch pathway; the negative regulator Numb is expressed only at low levels. In vitro, nM concentrations of compound (1) induce a less transformed phenotype in A549 cells and loss of growth in soft agar […], which is consistent with mechanistic inhibition of Notch activation. […] Female nude mice (10/group), obtained from Charles River Laboratories (Wilmington, Mass.) were used when they were approximately 13-14 weeks old and weighed approximately 23-25 grams. The health of all animals was determined daily by gross observation of experimental animals and by the analyses of blood samples of sentinel animals that were housed on the shared shelf racks. All animals were allowed to acclimate and recover from any shipping related stress for a minimum of 72 hours prior to experimental use. Autoclaved water and irradiated food [5058-ms Pico chow (mouse) Purina, Richmond, Ind.] were provided ad libitum, and the animals were maintained on a 12 hour light and dark cycle. Cages, bedding and water bottles were autoclaved before use and were changed weekly. A549 human NSCLC cells were purchased from ATCC (Manassas, Va.) and cultured in RPMI 1640 culture medium with 10% (v/v) FBS. Cells were grown and harvested by members of the Oncology In Vivo Section (OIVS). Each mouse received 7.5×10^6 cells in 0.2 ml PBS (Phosphate Buffered Saline) implanted subcutaneously in the right hind flank by members of OIVS on Aug. 17, 2006. […] Compound (1) was mixed vigorously prior to withdrawal and administration. Formulated compound and vehicle were prepared weekly and stored at 4° C., as set out below. […] Treatment began on Sep. 12, 2006 (day 26 post tumor cell implant). […] 19, 2006 (day 33 post tumor cell implant). […] 3, 2006 (day 47 post tumor cell implant). Efficacy data was graphically represented as the mean tumor volume+standard error of the mean (SEM). Tumor volumes of treated groups were presented as percentages of tumor volumes of the control groups (% T/C), using the formula: 100×((T−T0)/(C−C0)), where T represented mean tumor volume of a treated group on a specific day during the experiment, T0 represented mean tumor volume of the same treated group on the first day of treatment; C represented mean tumor volume of a control group on the specific day during the experiment, and C0 represented mean tumor volume of the same treated group on the first day of treatment. Tumor volume (in cubic millimeters) was calculated using the ellipsoid formula: (D×(d2))/2 where ‘D’ represents the large diameter of the tumor, and ‘d’ represents the small diameter. In some cases, tumor regression and/or percent change in tumor volume was calculated using the formula: ((T−T0)/T0)×100 where ‘T’ represents mean tumor volume of the treated group at a particular day, and ‘T0’ represents mean tumor volume of the same treated group at initiation of treatment. Statistical analysis was determined by the rank sum test and One Way Anova and a post-hoc Bonferroni t-test (SigmaStat, version 2.0, Jandel Scientific, San Francisco, Calif.). Differences between groups were considered to be significant when the probability value (p) was ≦0.05. […] Percent tumor growth inhibition was calculated on day 47, which was the final day of treatment for the 21-day treated groups, 7 days post-treatment for 14-day treated groups (14+/7−), or 14-days post treatment for the 7-day treated group (7+/14−).

in vivo = experiment: in vivo
Protocol: Treatment began on Sep. 12, 2006 (day 26 post tumor cell implant). Compound (1) and vehicle were dosed as a suspension using a sterile 1 cc syringe and 18-gauge gavage needle (0.2 ml/animal) once (qd) or twice per day (bid) 8 hours apart for either 7, 14 or 21 days out of a 21 day schedule. For animals dosed for 7 days (7+/14−), treatment ended on Sep. 19, 2006 (day 33 post tumor cell implant). These mice were re-treated on day 67 with the same dose of compound (1) for another 7 days until day 74. For animals dose for 14 days (14+/7−) treatment ended on Sep. 26, 2006 (day 40 post tumor cell implant), and for animals dosed for 21 days, treatment ended on Oct. 3, 2006 (day 47 post tumor cell implant).
Weight loss was graphically represented as percent change in mean group body weight, using the formula: ((W−W0)/W0)×100, where ‘W’ represents mean body weight of the treated group at a particular day, and ‘W0’ represents mean body weight of the same treated group at initiation of treatment.

[2] = nude, mouse, in vivo, maximum tolerated dose (MTD)

CC(C)(C(=O)NCC(F)(F)C(F)(F)F)C(=O)N[C@@H]1C(=O)Nc2ccccc2-c2ccccc21 [Compound (1), 2,2-Dimethyl-N—((S)-6-oxo-6,7-dihydro-5H-dibenzo[b,d]azepin-7-yl)-N′-(2,2,3,3,3-pentafluoro-propyl)-malonamide]
% TGI ([1]; 3 mg/kg po bid × 21 days): 83% | % TGI ([1]; 3 mg/kg po bid, 14+/7− schedule): 83% | % TGI ([1]; 3 mg/kg po qd × 21 days): 76% | % TGI ([1]; 3 mg/kg po qd, 14+/7− schedule): 66% | % TGI ([1]; 10 mg/kg po bid × 21 days): 72% | % TGI ([1]; 10 mg/kg po bid, 14+/7− schedule): 80% | % TGI ([1]; 10 mg/kg po qd × 21 days): 70% | % TGI ([1]; 10 mg/kg po qd, 14+/7− schedule): 77% | % TGI ([1]; 30 mg/kg po bid, 14+/7− schedule): 79% | % TGI ([1]; 30 mg/kg po qd × 21 days): 66% | % TGI ([1]; 30 mg/kg po qd, 14+/7− schedule): 79% | inhibition of tumor growth sustained post treatment ([1]; 60 mg/kg bid, 7+/14− schedule (to day 67)): up to 34 days | % TGI ([1]; 60 mg/kg po bid, 7+/14− schedule): 91% | % TGI ([1]; 60 mg/kg po qd, 14+/7− schedule): 88% | % TGIs (range) ([1]; 3, 10 or 30 mg/kg once or twice daily for 14 (14+/7−) or 21 days): 66-83% | inhibition of tumor growth sustained post treatment ([1]; all 21-day treated groups (to day 63)): up to 16 days | growth suppression lasting post treatment ([1]; all qd or bid groups, 14+/7− schedule (to day 63)): up to 23 days | tumor growth inhibition (range) ([1]; seven or fourteen days of BID treatment out of a 21 day cycle): 79-91% | animal deaths (in vivo; 30 mg/kg bid for 21 days, 10/group): two | mice died (in vivo; 60 mg/kg bid for 14 days, 10/group): four | mice died (in vivo; 60 mg/kg bid for 21 days, 10/group): seven | mice died (in vivo; 60 mg/kg qd for 21 days, 10/group): three | maximum tolerated dose (MTD) (in vivo; nude, mouse, in vivo, 21 days): 10 mg/kg | MTD at 7 days (in vivo; [2]): 60 mg/kg | MTD at 14 days (in vivo; [2]): 30 mg/kg
